Reference: patent US20240279278A1, “NMU RECEPTOR 2 AGONISTS” (Boehringer Ingelheim International GmbH, priority 2023, published 2024)
pEC50: −log10 of the molar value. Starred links: 1 amine or outer side, 2 acyl side, 3 side chain; linkers in the order of their positions; H or OH if unused. Non-standard residues stand in square brackets, D forms with d. Residues, ends and D or L forms follow the SMILES beside them. *: point of attachment. Pipz(1-CH2CO,4-CH2CH2NH) = O=C(CN1CCN(CCN[*:1])CC1)[*:2]; C18 diacid = O=C(O)CCCCCCCCCCCCCCCCC(=O)*; γGlu = O=C(O)[C@H](CCC(=O)[*:2])N[*:1]; 2Pal = N[C@@H](Cc1ccccn1)C(=O)O; 3Pal = N[C@@H](Cc1cccnc1)C(=O)O; 4Pal = N[C@@H](Cc1ccncc1)C(=O)O; NMeL = CN[C@@H](CC(C)C)C(=O)O; NMeA = CN[C@@H](C)C(=O)O; Nle = CCCC[C@H](N)C(=O)O; Sar = CNCC(=O)O

What was measured:
Format in all cases: cell-based
human NMUR1 receptor = molecular target: T1, human NMUR1 receptor (Homo sapiens, UniProt Q9HB89); assay: IP1 Gq HTRF assay, activation of human NMUR1 in buffer; conditions: CHO-K1 cells expressing human NMUR1, stimulation buffer with 0.1% BSA; read-out: EC50 (hNMUR1) buffer
T1 construct: expressed in transfected cells; host or cells: CHO-K1
T1 sequence (Q9HB89 1-426): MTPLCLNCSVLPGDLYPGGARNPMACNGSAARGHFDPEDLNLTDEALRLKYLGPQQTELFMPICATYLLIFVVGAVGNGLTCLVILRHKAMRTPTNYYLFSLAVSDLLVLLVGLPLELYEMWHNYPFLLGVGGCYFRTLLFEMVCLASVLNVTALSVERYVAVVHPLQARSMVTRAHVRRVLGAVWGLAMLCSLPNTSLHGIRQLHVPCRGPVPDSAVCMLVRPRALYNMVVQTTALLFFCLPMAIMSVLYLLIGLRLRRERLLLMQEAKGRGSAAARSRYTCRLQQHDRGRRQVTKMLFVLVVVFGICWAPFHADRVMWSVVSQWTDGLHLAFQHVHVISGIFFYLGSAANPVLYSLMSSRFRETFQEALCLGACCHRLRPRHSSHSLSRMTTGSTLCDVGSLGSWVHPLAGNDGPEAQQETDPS
How it was run: (§1)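 CHO-K1 cells stably expressing human NMUR1 or NMUR2, seeded 24 h before assay, stimulated with peptide agonists (8-point dose-response, 1% DMSO final) in HEPES/HBSS buffer with 50 mM LiCl and 0.1% BSA, pH 7.4, 1 h at 37 °C. IP1 accumulation read by HTRF competition (665/620 nm); EC50 from 4-parameter sigmoidal fit.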

human NMUR2 receptor [1] = molecular target: T2, human NMUR2 receptor (Homo sapiens, UniProt Q9GZQ4); assay: IP1 Gq HTRF assay, activation of human NMUR2 in buffer; set-up: expressed in transfected cells; host or cells: CHO-K1; conditions: CHO-K1 cells expressing human NMUR2, stimulation buffer with 0.1% BSA; read-out: EC50 (hNMUR2) buffer
How it was run: as §1

human NMUR2 receptor [2] = molecular target: T2, human NMUR2 receptor; assay: IP1 Gq HTRF assay, activation of human NMUR2 in human plasma; set-up: expressed in transfected cells; host or cells: CHO-K1; conditions: CHO-K1 cells expressing human NMUR2, 100% human plasma; read-out: EC50 (hNMUR2) human plasma
How it was run: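 CHO-K1 cells stably expressing human NMUR2 exposed to peptide agonists (8-point dose-response) in 100% human plasma with 50 mM LiCl, 1% DMSO, for 1 h at 37° C. IP1 accumulation read by HTRF competition (665/620 nm ratio). EC50 from 4-parameter sigmoidal fit.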

T2 sequence (Q9GZQ4 whole entry): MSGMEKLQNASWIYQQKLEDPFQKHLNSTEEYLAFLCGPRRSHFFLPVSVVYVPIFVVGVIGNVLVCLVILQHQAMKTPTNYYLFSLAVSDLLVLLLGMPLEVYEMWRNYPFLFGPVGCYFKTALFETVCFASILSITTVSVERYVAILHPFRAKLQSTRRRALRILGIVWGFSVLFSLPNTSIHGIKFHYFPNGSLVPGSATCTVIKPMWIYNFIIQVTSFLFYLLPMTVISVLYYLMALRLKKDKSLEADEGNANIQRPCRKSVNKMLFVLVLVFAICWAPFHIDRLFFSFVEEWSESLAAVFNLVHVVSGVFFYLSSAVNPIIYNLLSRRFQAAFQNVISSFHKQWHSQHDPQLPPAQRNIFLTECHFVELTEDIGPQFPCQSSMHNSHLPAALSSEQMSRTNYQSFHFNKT

pEC50 (human NMUR1 receptor)	pEC50 (human NMUR2 receptor [1])	pEC50 (human NMUR2 receptor [2])	Compound
< 6.00	7.55	6.91	CCCC[C@H](NC(=O)[C@H](CC(C)C)N(C)C(=O)[C@H](Cc1ccccc1)NC(=O)[C@H](Cc1ccc(O)cc1)NC(=O)CN1CCN(CCNC(=O)CN(C)C(=O)CN(C)C(=O)CN(C)C(=O)CN(C)C(=O)CN(C)C(=O)CN(C)C(=O)CN(C)C(=O)CN(C)C(=O)CN(C)C(=O)CN(C)C(=O)CN(C)C(=O)CN(C)C(=O)CN(C)C(=O)CN(C)C(=O)CN(C)C(=O)CC[C@H](NC(=O)CC[C@H](NC(=O)CC[C@H](NC(=O)CCCCCCCCCCCCCCCCC(=O)O)C(=O)O)C(=O)O)C(=O)O)CC1)C(=O)N[C@@H](Cc1cccnc1)C(=O)N1CCC[C@H]1C(=O)N[C@@H](CCCNC(=N)N)C(=O)NCC(N)=O [Compound 54, C18DA-gGlu3-Sar15-AEPipAc-Tyr-Phe-NMeLeu-Nle-3Pal-Pro-Arg-Gly-NH2] ({C18 diacid-γGlu-γGlu-γGlu}-[Sar][Sar][Sar][Sar][Sar][Sar][Sar][Sar][Sar][Sar][Sar][Sar][Sar][Sar][Sar][Pipz(1-CH2CO,4-CH2CH2NH)]YF[NMeL][Nle][3Pal]PRG-NH2)
< 6.00	7.14	6.36	CCCC[C@H](NC(=O)[C@H](CC(C)C)N(C)C(=O)[C@H](Cc1ccccc1)NC(=O)[C@H](Cc1ccc(O)cc1)NC(=O)CN1CCN(CCNC(=O)CN(C)C(=O)CN(C)C(=O)CN(C)C(=O)CN(C)C(=O)CN(C)C(=O)CN(C)C(=O)CN(C)C(=O)CN(C)C(=O)CN(C)C(=O)CN(C)C(=O)CN(C)C(=O)CN(C)C(=O)CN(C)C(=O)CN(C)C(=O)CN(C)C(=O)CC[C@H](NC(=O)CC[C@H](NC(=O)CC[C@H](NC(=O)CCCCCCCCCCCCCCCCC(=O)O)C(=O)O)C(=O)O)C(=O)O)CC1)C(=O)N[C@@H](Cc1ccccn1)C(=O)N1CCC[C@H]1C(=O)N[C@@H](CCCNC(=N)N)C(=O)NCC(N)=O [Compound 56, C18DA-gGlu3-Sar15-AEPipAc-Tyr-Phe-NMeLeu-Nle-2Pal-Pro-Arg-Gly-NH2] ({C18 diacid-γGlu-γGlu-γGlu}-[Sar][Sar][Sar][Sar][Sar][Sar][Sar][Sar][Sar][Sar][Sar][Sar][Sar][Sar][Sar][Pipz(1-CH2CO,4-CH2CH2NH)]YF[NMeL][Nle][2Pal]PRG-NH2)
< 6.00	6.96	6.29	CCCC[C@H](NC(=O)[C@H](CC(C)C)N(C)C(=O)[C@H](Cc1ccccc1)NC(=O)[C@H](Cc1ccc(O)cc1)NC(=O)CN1CCN(CCNC(=O)CN(C)C(=O)CN(C)C(=O)CN(C)C(=O)CN(C)C(=O)CN(C)C(=O)CN(C)C(=O)CN(C)C(=O)CN(C)C(=O)CN(C)C(=O)CN(C)C(=O)CN(C)C(=O)CN(C)C(=O)CN(C)C(=O)CN(C)C(=O)CN(C)C(=O)CC[C@H](NC(=O)CC[C@H](NC(=O)CC[C@H](NC(=O)CCCCCCCCCCCCCCCCC(=O)O)C(=O)O)C(=O)O)C(=O)O)CC1)C(=O)N[C@@H](Cc1cccnc1)C(=O)N(C)[C@@H](C)C(=O)N[C@@H](CCCNC(=N)N)C(=O)NCC(N)=O [Compound 57, C18DA-gGlu3-Sar15-AEPipAc-Tyr-Phe-NMeLeu-Nle-3Pal-NMeAla-Arg-Gly-NH2] ({C18 diacid-γGlu-γGlu-γGlu}-[Sar][Sar][Sar][Sar][Sar][Sar][Sar][Sar][Sar][Sar][Sar][Sar][Sar][Sar][Sar][Pipz(1-CH2CO,4-CH2CH2NH)]YF[NMeL][Nle][3Pal][NMeA]RG-NH2)
< 6.00	6.85	6.15	CCCC[C@H](NC(=O)[C@H](CC(C)C)N(C)C(=O)[C@H](Cc1ccccc1)NC(=O)[C@H](Cc1ccc(O)cc1)NC(=O)CN1CCN(CCNC(=O)CN(C)C(=O)CN(C)C(=O)CN(C)C(=O)CN(C)C(=O)CN(C)C(=O)CN(C)C(=O)CN(C)C(=O)CN(C)C(=O)CN(C)C(=O)CN(C)C(=O)CN(C)C(=O)CN(C)C(=O)CN(C)C(=O)CN(C)C(=O)CN(C)C(=O)CC[C@H](NC(=O)CC[C@H](NC(=O)CC[C@H](NC(=O)CCCCCCCCCCCCCCCCC(=O)O)C(=O)O)C(=O)O)C(=O)O)CC1)C(=O)N[C@@H](Cc1ccncc1)C(=O)N(C)[C@@H](C)C(=O)N[C@@H](CCCNC(=N)N)C(=O)NCC(N)=O [Compound 58, C18DA-gGlu3-Sar15-AEPipAc-Tyr-Phe-NMeLeu-Nle-4Pal-NMeAla-Arg-Gly-NH2] ({C18 diacid-γGlu-γGlu-γGlu}-[Sar][Sar][Sar][Sar][Sar][Sar][Sar][Sar][Sar][Sar][Sar][Sar][Sar][Sar][Sar][Pipz(1-CH2CO,4-CH2CH2NH)]YF[NMeL][Nle][4Pal][NMeA]RG-NH2)

Continued, compound first:

Compound	pEC50 (human NMUR1 receptor)	pEC50 (human NMUR2 receptor [1])	pEC50 (human NMUR2 receptor [2])
CCCC[C@H](NC(=O)[C@H](CC(C)C)N(C)C(=O)[C@H](Cc1ccccc1)NC(=O)[C@H](Cc1ccc(O)cc1)NC(=O)CN1CCN(CCNC(=O)CN(C)C(=O)CN(C)C(=O)CN(C)C(=O)CN(C)C(=O)CN(C)C(=O)CN(C)C(=O)CN(C)C(=O)CN(C)C(=O)CN(C)C(=O)CN(C)C(=O)CN(C)C(=O)CN(C)C(=O)CN(C)C(=O)CN(C)C(=O)CN(C)C(=O)CC[C@H](NC(=O)CC[C@H](NC(=O)CC[C@H](NC(=O)CCCCCCCCCCCCCCCCC(=O)O)C(=O)O)C(=O)O)C(=O)O)CC1)C(=O)N(C)[C@@H](CCCNC(=N)N)C(=O)N(C)[C@@H](C)C(=O)N[C@@H](CCCNC(=N)N)C(=O)NCC(N)=O [Compound 53, C18DA-gGlu3-Sar15-AEPipAc-Tyr-Phe-NMeLeu-Nle-NMeArg-NMeAla-Arg-Gly-NH2] (HELM PEPTIDE1{[O=C(O)CCCCCCCCCCCCCCCCC(=O)[*:2]].[gGlu].[gGlu].[gGlu].[Sar].[Sar].[Sar].[Sar].[Sar].[Sar].[Sar].[Sar].[Sar].[Sar].[Sar].[Sar].[Sar].[Sar].[Sar].[O=C(CN1CCN(CCN[*:1])CC1)[*:2]].Y.F.[meL].[Nle].[meR].[meA].R.G.[am]}$$$$V2.0)	5.89	8.40	7.60
CCCC[C@H](NC(=O)[C@H](CC(C)C)N(C)C(=O)[C@H](Cc1ccccc1)NC(=O)[C@H](Cc1ccc(O)cc1)NC(=O)CN1CCN(CCNC(=O)CN(C)C(=O)CN(C)C(=O)CN(C)C(=O)CN(C)C(=O)CN(C)C(=O)CN(C)C(=O)CN(C)C(=O)CN(C)C(=O)CN(C)C(=O)CN(C)C(=O)CN(C)C(=O)CN(C)C(=O)CN(C)C(=O)CN(C)C(=O)CN(C)C(=O)CC[C@H](NC(=O)CC[C@H](NC(=O)CC[C@H](NC(=O)CCCCCCCCCCCCCCCCC(=O)O)C(=O)O)C(=O)O)C(=O)O)CC1)C(=O)N[C@@H](Cc1c[nH]cn1)C(=O)N(C)[C@@H](C)C(=O)N[C@@H](CCCNC(=N)N)C(=O)NCC(N)=O [Compound 55, C18DA-gGlu3-Sar15-AEPipAc-Tyr-Phe-NMeLeu-Nle-His-NMeAla-Arg-Gly-NH2] (HELM PEPTIDE1{[O=C(O)CCCCCCCCCCCCCCCCC(=O)[*:2]].[gGlu].[gGlu].[gGlu].[Sar].[Sar].[Sar].[Sar].[Sar].[Sar].[Sar].[Sar].[Sar].[Sar].[Sar].[Sar].[Sar].[Sar].[Sar].[O=C(CN1CCN(CCN[*:1])CC1)[*:2]].Y.F.[meL].[Nle].H.[meA].R.G.[am]}$$$$V2.0)	< 6.00	7.54	6.53
CCCC[C@H](NC(=O)[C@H](CC(C)C)N(C)C(=O)[C@H](Cc1ccccc1)NC(=O)[C@H](Cc1ccc(O)cc1)NC(=O)CN1CCN(CCNC(=O)CN(C)C(=O)CN(C)C(=O)CN(C)C(=O)CN(C)C(=O)CN(C)C(=O)CN(C)C(=O)CN(C)C(=O)CN(C)C(=O)CN(C)C(=O)CN(C)C(=O)CN(C)C(=O)CN(C)C(=O)CC[C@H](NC(=O)CC[C@H](NC(=O)CC[C@H](NC(=O)CCCCCCCCCCCCCCCCCCC(=O)O)C(=O)O)C(=O)O)C(=O)O)CC1)C(=O)N[C@@H](CCN)C(=O)N(C)[C@@H](C)C(=O)N[C@@H](CCCNC(=N)N)C(=O)NCC(N)=O [Compound 59, C20DA-gGlu3-Sar12-AEPipAc-Tyr-Phe-NMeLeu-Nle-Dbu-NMeAla-Arg-Gly-NH2]	< 6.00	8.30	7.92
CCCC[C@H](NC(=O)[C@H](CC(C)C)N(C)C(=O)[C@H](Cc1ccccc1)NC(=O)[C@H](Cc1ccc(O)cc1)NC(=O)CN1CCN(CCNC(=O)CN(C)C(=O)CN(C)C(=O)CN(C)C(=O)CN(C)C(=O)CN(C)C(=O)CN(C)C(=O)CN(C)C(=O)CN(C)C(=O)CN(C)C(=O)CC[C@H](NC(=O)CC[C@H](NC(=O)CC[C@H](NC(=O)CCCCCCCCCCCCCCCCCCC(=O)O)C(=O)O)C(=O)O)C(=O)O)CC1)C(=O)N[C@@H](CCN)C(=O)N1CCC[C@H]1C(=O)N[C@@H](CCCNC(=N)N)C(=O)NCC(N)=O [Compound 60, C20DA-gGlu3-Sar9-AEPipAc-Tyr-Phe-NMeLeu-Nle-Dbu-Pro-Arg-Gly-NH2] (HELM PEPTIDE1{[O=C(O)CCCCCCCCCCCCCCCCCCC(=O)[*:2]].[gGlu].[gGlu].[gGlu].[Sar].[Sar].[Sar].[Sar].[Sar].[Sar].[Sar].[Sar].[Sar].[O=C(CN1CCN(CCN[*:1])CC1)[*:2]].Y.F.[meL].[Nle].[Dab].P.R.G.[am]}$$$$V2.0)	6.27	8.40	7.86
